ChEMBL document CHEMBL1201862, “PubChem BioAssay data set” (2004)
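Values below derive from 48-hour exposures of cells grown in 96-well plates, with endpoints linearly interpolated between the two concentrations bracketing the appropriate inhibition level. Abbreviation: GI50, concentration required for 50% inhibition of growth.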 Active and inactive are the calls of the source. No stated cut-off is given here; in the data, active = GI50 up to about 1.1 µM and inactive = higher.

Assays:
Test in all cases: DTP human tumour cell line panel, 48 h
DU-145 = tested on: DU-145
UACC-257 = tested on: UACC-257
HCC 2998 = tested on: HCC 2998
HCT-116 = tested on: HCT-116
HL-60 = tested on: HL-60
MDA-MB-231 = tested on: MDA-MB-231
IGROV-1 = tested on: IGROV-1
HOP-62 = tested on: HOP-62
CCRF-CEM = tested on: CCRF-CEM
K562 = tested on: K562
SK-OV-3 = tested on: SK-OV-3
Malme-3M = tested on: Malme-3M
A549 = tested on: A549
NCI-H522 = tested on: NCI-H522
A498 = tested on: A498
ACHN = tested on: ACHN
SNB-75 = tested on: SNB-75
SN12C = tested on: SN12C
MDA-N = tested on: MDA-N
UACC-62 = tested on: UACC-62
MOLT-4 = tested on: MOLT-4
HOP-92 = tested on: HOP-92
HCT-15 = tested on: HCT-15
RXF 393 = tested on: RXF 393
SF-268 = tested on: SF-268
COLO 205 = tested on: COLO 205
OVCAR-5 = tested on: OVCAR-5
LOX IMVI = tested on: LOX IMVI
M14 = tested on: M14
MCF7 = tested on: MCF7
SR = tested on: SR
TK-10 = tested on: TK-10
SF-295 = tested on: SF-295
Hs-578T = tested on: Hs-578T
PC-3 = tested on: PC-3
EKVX = tested on: EKVX
UO-31 = tested on: UO-31
SK-MEL-2 = tested on: SK-MEL-2
NCI-H226 = tested on: NCI-H226
SK-MEL-5 = tested on: SK-MEL-5
NCI-H460 = tested on: NCI-H460
786-0 = tested on: 786-0
SNB-19 = tested on: SNB-19
OVCAR-8 = tested on: OVCAR-8
RPMI-8226 = tested on: RPMI-8226
SK-MEL-28 = tested on: SK-MEL-28
U-251 = tested on: U-251
SW-620 = tested on: SW-620
HT-29 = tested on: HT-29
T47D = tested on: T47D
BT-549 = tested on: BT-549
NCI/ADR-RES = tested on: NCI/ADR-RES
NCI-H23 = tested on: NCI-H23

Measured: GI50

NCCCN(CCCN(C(=O)Nc1ccccc1)c1ccccc1)C(=O)Nc1ccccc1
inactive: DU-145 36.8 µM | UACC-257 22 µM | HCC 2998 25.6 µM | HCT-116 18.6 µM | HL-60 28.1 µM | MDA-MB-231 59.6 µM | IGROV-1 51.1 µM | HOP-62 25.1 µM | CCRF-CEM 59.2 µM | K562 34.9 µM | SK-OV-3 45.6 µM | Malme-3M 20 µM | A549 47.1 µM | NCI-H522 20.2 µM | A498 87.1 µM | ACHN 55.7 µM | SNB-75 23.2 µM | SN12C 64.9 µM | MDA-N 40.5 µM | UACC-62 23.1 µM | MOLT-4 52 µM | HOP-92 27.2 µM | RXF 393 24.5 µM | SF-268 32.6 µM | COLO 205 36.8 µM | OVCAR-5 43.2 µM | LOX IMVI 23.5 µM | M14 19.4 µM | MCF7 35.1 µM | SR 45 µM | TK-10 38.4 µM | SF-295 23.2 µM | Hs-578T 32.7 µM | PC-3 33.7 µM | EKVX 58.7 µM | UO-31 20.8 µM | SK-MEL-2 21.9 µM | NCI-H226 44 µM | SK-MEL-5 18.5 µM | NCI-H460 31 µM | 786-0 33 µM | SNB-19 52.4 µM | OVCAR-8 49.3 µM | RPMI-8226 27.7 µM | SK-MEL-28 16.7 µM | U-251 36.6 µM | SW-620 21.3 µM | HT-29 29.8 µM | T47D 28.2 µM | BT-549 31 µM | NCI/ADR-RES 69.5 µM | NCI-H23 27.2 µM
28.9 µM: HCT-15
